Reference: US20110236822A1, “METHOD OF TREATING SEASONED DEVELOPER SOLUTION” (priority 2010, published 2011)
Where two headings read alike, the source gives them in different places. Values belong to the compound of their own block, whether it stands above or below them.

Columns and labels:
[1] = Treatment of IR dye with oxidative and reducing reagents to degrade the dye (TABLE I); assay type: physicochemical
[2] = tested on: aquatic life; details: from MSDS sheets; cited from earlier work
[3] = tested on: humans; details: from MSDS sheets; cited from earlier work
[4] = Treatment of seasoned developer solution with Chlorox bleach solution, residual dye by FTIR; assay type: physicochemical; details: Kodak 955 Developer seasoned, 15 ml bleach diluted to 6%, 2000 rpm
Procedure: An imageable layer coating formulation was prepared with the components in TABLE II below in a solvent mixture of methyl ethyl ketone:water:isopropyl alcohol (70:20:10 weight ratio). The formulation was coated onto a sulfuric acid anodized aluminum substrate and dried in a conveyor oven at 100° C. for 1 minute to provide an imageable layer with a dry coating weight of 1.60 g/m^2. The resulting printing plate precursors were imaged at 110 mJ/cm^2 and 11 Watt using a Kodak 3244x platesetter. The imaged precursors (approx. 11 m^2) were manually developed in 1 liter of Kodak 955 Developer to produce seasoned developer solution (3).
Samples (each 50 ml) of seasoned developer solution (3) were diluted with 150 ml of water and treated with 15 ml of Chlorox® bleach solution diluted to 6% by drop wise addition while stirring at 2000 rpm. The stirring continued for another 15 minutes after the addition. The green color of the seasoned developer solution samples disappeared, forming pale yellow, slightly turbid solutions. […] The extract was concentrated about 50 times and analyzed by FTIR. […]
An imageable layer coating formulation was prepared using the components of TABLE II above except that the IR dye was S0507 from Few Chemicals GmbH. […] The extract was concentrated 50 times by evaporation under nitrogen flow and spotted onto a sodium chloride disk, dried, and analyzed by FTIR. […]

[5] = Treatment of IR dye 66e in methanol with Chlorox bleach solution (qualitative, titration, LC-MS); assay type: physicochemical
[6] = Treatment of seasoned developer solution with Chlorox bleach solution, residual dye by LC-MS; assay type: physicochemical; details: Kodak 1080 Developer seasoned, diluted, 8 ml bleach diluted to 6%, 6000 rpm
Procedure: In this example, seasoned developer solutions containing IR dye 66e were treated with commercial Chlorox® bleach solution and the degradation products were examined by LC-MS. The seasoned developer solutions were prepared in the lab after development of imaged commercially available, negative-working printing plate precursors containing IR dye 66e with Kodak 1080 Developer under conditions that account for real-life situation at the end of the processor cycle when the seasoned developer solution is being changed. The following calculation of the coating concentration in the seasoned developer solution at the end of the processing cycle takes into account that a Mercury 1035 processor will have a cycle of 3150 m^2 plates/9 gal (34 liters) of developer solution that is the tank capacity. […]
To account for the lower limit, solution C was prepared by dissolving 1.1 m^2 of printing plate coating in 100 ml of developer solution. […] The precipitate (2) and the supernatant liquid (2) were analyzed by LC-MS for the IR dye 66e using the equipment and method described above in Comparative Example 3.
Precipitate (2) was extracted in acetonitrile:isopropanol at 2.5 mg/ml. […] This reference solution (standard) was analyzed to determine the sensitivity of the instrument. […]

[7] = Attempt to precipitate the anionic chromophore of IR Dye I as insoluble salts; assay type: physicochemical; details: IR Dye I 0.3% in methanol; 3% solution of compound in water
[8] = Attempt to precipitate the cationic chromophore of IR dye 66e as insoluble salts with organic acids; assay type: physicochemical; details: IR dye 66e 0.3% in methanol; aqueous organic acid at 3% concentration
[9] = 0.3% IR dye 66e in methanol, 23° C.
[10] = after titration with diluted bleach

Compound: N.N.O=S(=O)(O)OOS(=O)(=O)O [Ammonium persulfate]
- Change Noticed [1, 9]: Dye bleached pink
- toxicity to aquatic life [2]: toxic to aquatic life

Compound: O=[N+]([O-])[O-].O=[N+]([O-])[O-].O=[N+]([O-])[O-].O=[N+]([O-])[O-].O=[N+]([O-])[O-].O=[N+]([O-])[O-].[Ce+4].[NH4+].[NH4+] [Ceric ammonium nitrate]
- Change Noticed [1]: Dye bleached pink

Compound: O=C([O-])c1ccccc1.[Cu+] [Cu(I) benzoate]
- Change Noticed [1]: Dye bleached pink

Compound: [Cl][Fe]([Cl])[Cl] [Ferric chloride]
- Change Noticed [1, 9]: Black
- toxicity to aquatic life [2]: toxic to aquatic life

Compound: [Cl][Fe][Cl] [Ferrous chloride]
- Change Noticed [1, 9]: Black
- toxicity to aquatic life [2]: toxic to aquatic life

- Change Noticed ([1]; 0.3% IR dye 66e in methanol, NaOH, room temperature): Pink precipitate
- Change Noticed ([1]; 0.3% IR dye 66e in methanol, Sulfuric acid, 1%, 23° C.): Black
- Change Noticed ([1]; 0.3% IR dye 66e in methanol, Sulfuric acid, 1%, Heat): Dye bleached pink
Compound: OO [Hydrogen peroxide]
- carcinogenic and mutagenic potential for humans [3]: potential carcinogenic and mutagenic for humans

Compound: CC(=O)OCCN1/C(=C/C=C2\CCC(/C=C/C3=[N+](CCOC(C)=O)c4ccc5cc(S(=O)(=O)O)ccc5c4C3(C)C)=C2N(c2ccccc2)c2ccccc2)C(C)(C)c2c1ccc1cc(S(=O)(=O)[O-])ccc21 [IR Dye I]
- residual dye in extract of sediment (3) or supernatant liquid (3) by FTIR [4]: No residual IR Dye I was found

Compound: CN1/C(=C/C=C2\CCCC(/C=C/C3=[N+](C)c4ccccc4C3(C)C)=C2Sc2ccccc2)C(C)(C)c2ccccc21 [IR dye 66e]
- change of dye solution on bleach treatment ([5]; 0.3% in methanol, liberal amount of Chlorox bleach solution (3.6% sodium hypochlorite), room temperature, shaking): color change from green to light yellow and a yellow precipitate was formed
- change of dye solution, incomplete degradation ([5]; 20 ml solution B titrated with 4.8 ml of 5% bleach (insufficient hypochlorite)): became reddish-brown
- residual dye in filtrate (1) by LC-MS [5, 10]: did not contain IR dye 66e
- residual dye in precipitate (1) by LC-MS [5, 10]: gave a signal for the IR dye 66e
- original dye co-precipitated with its degradation products ([5]; estimated, precipitate (1)): about 1%
- undiluted Chlorox bleach solution needed to bleach 1 mg of dye ([5]; titration, per 1 mg dye, magnetic stirrer): 0.007463 mL
- Chlorox bleach solution needed for degradation of 1 g of dye ([5]; titration, per 1 g dye): 7.46 mL
- residual dye in supernatant liquid (2) by LC-MS [6]: No trace of IR dye 66e was found

Compound: O=C1CCC(=O)N1Br [N-Bromo-succinimide]
- Change Noticed [1]: Dye bleached pink

Compound: O=S([O-])[O-].[Na+].[Na+] [Na sulfite]
- Change Noticed [1]: Some bleaching,

Compound: [O-][Cl+3]([O-])([O-])O [Perchloric acid]
- Change Noticed [1]: Dye bleached pink

Compound: O=S(=O)([O-])OOS(=O)(=O)[O-].[K+].[K+] [Potassium persulfate]
- Change Noticed [1]: Brown

Compound: O=S([O-])O.[Na+] [Sodium hydrogen sulfite]
- Change Noticed [1]: No reaction

- Change Noticed ([1]; 0.3% IR dye 66e in methanol, Heat): No reaction
Compound: O=S([O-])S(=O)(=O)[O-].[Na+].[Na+] [Sodium metabisulfite]

Compound: CCCCCCCCCCCCCCCCCC[N+](C)(C)Cc1ccccc1.[Cl-] [benzyl stearyl dimethyl ammonium chloride]
- precipitation of IR Dye I [7]: None of these compounds precipitated IR Dye I

Compound: C[N+](C)(C)Cc1ccccc1.[Cl-] [benzyl trimethyl ammonium chloride]
- precipitation of IR Dye I [7]: None of these compounds precipitated IR Dye I

Compound: naphthalene sulfonic acid
- precipitation of IR dye 66e [8]: None of these organic acids were useful to precipitate the IR dye 66e
